From patent publication US9969858B2, “Metalloinsertor conjugates” (CALIFORNIA INSTITUTE OF TECHNOLOGY, priority 2015, dated 2018)

Test system: duplex DNA containing a CC mismatch
Assay: Photocleavage of mismatched DNA upon irradiation (competition titration)
Type: biochemical
Conditions: 340-440 nm irradiation
Method: For [RhPt] Conjugate, a single-stranded DNA oligomer with the sequence [NT]. ID NO: 2) (underline denotes the mismatch) was labeled at the 5'-end with [^32P]-ATP and polynucleotide kinase (PNK) at 37° C. for 1 h. The radiolabeled DNA was purified by gel electrophoresis and annealed to its mismatched complement (containing a CC mismatch) by heating to 90° C. in buffer (100 mM NaCl, 20 mM NaPi, pH 7.1), followed by slow cooling to ambient temperature over 3 h, to give a final concentration of 2 μM duplex DNA. Racemic solutions of the metal complex (containing all stereoisomers) were prepared in Milli-Q water over a range of concentrations (100 nM-50 μM). For each sample, 4 μM […] (5 μl), which photocleaves DNA at mismatched sites, 2 μM annealed mismatched duplex DNA (10 μl), and the non-photocleaving competitor complex at various concentrations (5 μl) were combined to give 1 μM […] and 1 μM duplex DNA as the final concentrations. […] The amounts of DNA in each band were analyzed by autoradiography and quantitated by phosphorimagery (ImageQuant) (FIG. 20). […] To assess the binding of the rhodium subunit of RhPt at the CC mismatch, the fraction of cleaved DNA was quantified and expressed as a percentage of the total DNA in each lane and plotted against the log of the concentration of RhPt. […]

| Substance | photocleavage of DNA upon irradiation |
| --- | --- |
| rac-[Rh(bpy)2chrysi]Cl3 [rac-[Rh(bpy)2chrysi]3+] | does photocleave DNA at mismatched sites |
| [Rh(chrysi)(HDPA)(Amal)Pt(DACH]^3+ [RhPt] | does not photocleave DNA |
